This is an account of results in PubChem BioAssay AID434951 (Broad Institute, 2010).

The source made the active and inactive calls.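 How the source made its calls: active means a fitted half-maximal concentration EC50 for the rise in nuclear signal no higher than ten times the top dose tested; inconclusive means flat fit with activity between 30% and 70%, or unusable fit; inactive means EC50 beyond ten times the top dose.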

Sequence of Hypoxia-inducible factor 1-alpha (Homo sapiens) (Q16665 whole entry, looked up): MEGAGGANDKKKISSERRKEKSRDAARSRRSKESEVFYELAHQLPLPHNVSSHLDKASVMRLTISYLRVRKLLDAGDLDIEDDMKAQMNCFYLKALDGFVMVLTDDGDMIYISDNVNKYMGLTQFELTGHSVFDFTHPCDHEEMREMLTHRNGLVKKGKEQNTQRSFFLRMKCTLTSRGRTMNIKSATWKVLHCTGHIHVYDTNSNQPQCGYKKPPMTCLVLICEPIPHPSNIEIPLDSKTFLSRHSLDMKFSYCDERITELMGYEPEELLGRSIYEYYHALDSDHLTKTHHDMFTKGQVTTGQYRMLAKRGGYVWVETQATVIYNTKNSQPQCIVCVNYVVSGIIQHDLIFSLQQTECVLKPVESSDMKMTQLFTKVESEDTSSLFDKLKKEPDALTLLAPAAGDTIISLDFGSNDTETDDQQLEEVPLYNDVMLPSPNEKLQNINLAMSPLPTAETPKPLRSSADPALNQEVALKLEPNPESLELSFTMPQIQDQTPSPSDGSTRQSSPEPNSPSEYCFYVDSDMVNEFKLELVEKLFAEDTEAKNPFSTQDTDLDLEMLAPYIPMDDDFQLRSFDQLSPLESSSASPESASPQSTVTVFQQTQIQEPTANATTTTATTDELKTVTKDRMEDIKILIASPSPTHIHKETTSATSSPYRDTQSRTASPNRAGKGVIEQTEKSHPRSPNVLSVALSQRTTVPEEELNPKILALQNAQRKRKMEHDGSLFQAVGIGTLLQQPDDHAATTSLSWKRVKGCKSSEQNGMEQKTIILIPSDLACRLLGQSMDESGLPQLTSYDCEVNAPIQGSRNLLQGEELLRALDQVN

The assay has as its target Hypoxia-inducible factor 1-alpha (Homo sapiens) (UniProt Q16665). Briefly: HIF pathway activation, GFP-HIF1alpha translocation – imaging, fluorescence, U2OS GFP-HIF1alpha, confirmation (AID 434951). The note with it: U2OS GFP-HIF1alpha nuclear intensity, high-content imaging.
For `O=C1CCCC(O)=C1C=Nc1cccc(C(F)(F)F)c1`, the EC50 is > 35 µM (inactive). As to `O=C(N/N=C/c1ccccn1)c1ccc(Cl)cc1`, the EC50 is 12.8 µM.

With `Oc1ccccc1/C=N/Nc1nc2ccccc2o1`, the EC50 is 8.18 µM.

`CCN(CCN(C)C)C(=O)C1CCN(S(=O)(=O)c2c(C)noc2/C=C/c2ccccc2F)CC1`: the EC50 is 10.4 µM. For the compound `Oc1cccc(/C=N/c2c(-c3ccco3)nc3ccccn23)c1`, the EC50 was > 35 µM (inactive). As to `CCOc1cccc(/C=N/Nc2ccc(S(=O)(=O)N(CC)CC)cn2)c1O`, the EC50 was 3.59 µM. With `CCOC(=O)c1c(NS(=O)(=O)c2ccccc2)n(CCCOC)c2nc3ccccc3nc12`, the EC50 is > 35 µM (inactive). For `O=C(Nc1nc(-c2ccccn2)cs1)c1ccc(S(=O)(=O)N2CCCCC2)cc1`, the EC50 was 7.12 µM. Turning to `CCCCn1c(/C=N/Nc2nc3ccccc3[nH]2)nc2ccccc21`, the EC50 is 7.81 µM. Turning to `Cc1cc(NC(=O)CCCS(=O)(=O)c2nc(-c3cccs3)cc(C(F)(F)F)n2)no1`, the EC50 was > 35 µM (inactive). Take `CC(C)c1cc(-c2cc(C(=O)NCc3ccccc3)on2)nc(NC2CCCC2)n1`: the EC50 was > 35 µM (inactive). With `O=C(Cc1ccc(S(=O)(=O)N2CCOCC2)s1)Nc1ccc(S(=O)(=O)N2CCCCC2)cc1` the figure was > 35 µM (inactive); with `Cc1ccc(OCCNC(=O)CCc2nc3sc4c(c3c(=O)[nH]2)CCCC4)cc1`, > 35 µM (inactive); with `O=C(NC1CCCC1)c1cc(-c2ccccc2)on1`, 16.3 µM. Regarding `COc1cc2c(cc1OC)C(C)N(S(=O)(=O)c1ccc(Cl)nc1)CC2` (stereo not given), the EC50 was > 35 µM (inactive). With `Cc1cccc(NC(=S)N2CCC(N(C)CC3CCCO3)CC2)c1` (stereo not given) the figure was > 35 µM (inactive); with `O=C(Nc1cccc(-c2cn3ccccc3n2)c1)C1CC1`, > 35 µM (inactive); with `Oc1[nH]c2ccccc2c1N=NC(=S)N1CCOCC1`, 8 µM.

For the compound `CCn1nc(NS(=O)(=O)c2ccc(NC(C)=O)cc2)c2cc3cccc(C)c3nc21`, the EC50 was > 35 µM (inactive). As to `CCCCC(=O)NC(c1ccccc1OC)c1ccc2cccnc2c1O` (stereo not given), the EC50 is 6.81 µM. For `NC(=O)CSc1nnc2ccc(-c3ccc(Cl)cc3)nn12`, the EC50 was > 35 µM (inactive). With `O=C(Nc1nc2ccc([N+](=O)[O-])cc2s1)c1c(F)cccc1F` the figure was > 35 µM (inactive); with `C[C@@H](C(=O)Nc1ccc2c(c1)OCCO2)n1c(=O)[nH]c2ccccc2c1=O`, > 35 µM (inactive); with `Cc1ccc(C2=NOC(=O)/C2=C\c2ccccc2)cc1`, > 35 µM (inactive).

As for `CN(C)CCCN(C(=O)CCS(=O)(=O)c1ccccc1)c1nc2cc3c(cc2s1)OCO3`, the EC50 is > 35 µM (inactive). Consider `CNc1nc(-c2ccccn2)nnc1-c1ccccc1`, for which the EC50 is 7.4 µM. Consider `COc1ccccc1C(=O)Oc1ccccc1C(=O)Nc1ccccc1`, for which the EC50 is > 35 µM (inactive). With `CCCCC(=O)NC(c1ccc(Cl)cc1)c1ccc2cccnc2c1O` (stereo not given) the figure was 1.66 µM. Regarding `COc1ccc(C(=O)CSc2nncn2C)cc1`, the EC50 is > 35 µM (inactive). In the case of `O=C(Cn1ncc2c3ccccc3n(Cc3ccccc3F)c2c1=O)NCCN1CCOCC1`, the EC50 was > 35 µM (inactive). As for `O=C(N/N=C/c1ccc(O)cc1O)c1ccc(CN2C(=O)c3cccc4cccc2c34)cc1`, the EC50 is 19.6 µM.

In the case of `COc1ccc2oc(=O)c(C(=O)NC3CCCCCC3)cc2c1`, the EC50 is > 35 µM (inactive). Take `Cc1ccc2nc(SCC(=O)N3CCCCCC3)nc(=O)n2c1`: the EC50 is > 35 µM (inactive).

As to `COc1cccc2sc(Nc3nc(-c4ccccn4)cs3)nc12`, the EC50 was 6.13 µM. On to `Cc1nnsc1C(=O)N/N=C/c1ccc2ccccc2c1O`, for which the EC50 was 3.13 µM.

Take `O=C(CSc1nc2ccccc2c(=O)n1-c1ccccc1)NC(=O)CN1CCCC1=O`: the EC50 was > 35 µM (inactive). Regarding `O=C(/C=C/c1ccco1)Oc1cc(Br)cc(/C=N/NC(=O)c2ccccc2O)c1`, the EC50 is 5.43 µM. With `Cc1ccc(O)c(NC(=O)c2ccc3c(c2)C(=O)N(Cc2ccco2)C3=O)c1` the figure was > 35 µM (inactive). Turning to `O=C(Nc1cccc(Cl)c1)Nc1cccc(C(=O)O)c1`, the EC50 was > 35 µM (inactive). For the compound `CCOc1ccc(/C=C/C(=O)c2ccccc2)cc1OC`, the EC50 was 19.7 µM. With `COc1cnc(-c2ccccn2)nc1NC(C)C` the figure was 1.85 µM; with `COc1ccc(OC)c(NC(=O)CCc2nnc3ccc(NCc4ccco4)nn23)c1`, > 35 µM (inactive); with `Cc1cc(C)c(NS(=O)(=O)c2ccc3c(c2)NC(=O)CCS3)c(C)c1`, > 35 µM (inactive). Regarding `COCc1nnc(NC(=O)c2cc(Cl)ccc2OC)s1`, the EC50 was > 35 µM (inactive). `CCC(=O)N1CCc2cc(S(=O)(=O)NCCC(=O)N3CCN(c4cccc(OC)c4)CC3)ccc21`: the EC50 is > 35 µM (inactive).

As for `CC(=O)Nc1nc(C)c(-c2csc(Nc3ccccn3)n2)s1`, the EC50 is > 35 µM (inactive). With `Cc1cc(NC(=O)CSc2nc3c(c(=O)n2-c2ccc(Cl)cc2)SCC3)no1` the figure was > 35 µM (inactive); with `CC(C)=CCSc1nnc([C@@H](N)Cc2c[nH]c3ccccc23)o1`, > 35 µM (inactive); with `CC(C(=O)N1CCOCC1)N1c2cccc3cccc(c23)S1(=O)=O` (stereo not given), > 35 µM (inactive). With `Cc1ccc(/C=N/NC(=O)CN2CCN(Cc3ccccc3Cl)CC2)o1`, the EC50 is > 35 µM (inactive). With `COCCn1c(-c2ccc(OC)cc2)cnc1SCC(=O)Nc1ccc(OC)cc1OC`, the EC50 was > 35 µM (inactive). Turning to `COc1ccc(/C=N/Nc2ncnc3sc4c(c23)CCCC4)cc1OC`, the EC50 is > 35 µM (inactive).

With `CC(C)C(=O)NC(c1ccc(Cl)cc1Cl)c1ccc2cccnc2c1O` (stereo not given), the EC50 was 4.88 µM. Turning to `Cc1ccc(Nc2nnc(-c3ccccc3N)o2)cc1C`, the EC50 was > 35 µM (inactive). `O=S(=O)(NCc1nnc2c(C(F)(F)F)cc(Cl)cn12)c1ccccc1`: the EC50 was > 35 µM (inactive). On to `CN(c1cccc(Cl)c1)S(=O)(=O)c1cccc(C(=O)Nc2nc3ccccc3[nH]2)c1`, for which the EC50 was > 35 µM (inactive). Regarding `OCCC#Cc1ccc(CN2CCN(Cc3ccccc3)C(CCO)C2)cc1` (stereo not given), the EC50 was > 35 µM (inactive). `CC(=O)NC(c1cccc([N+](=O)[O-])c1)c1ccc2cccnc2c1O` (stereo not given): the EC50 is 10.7 µM. Consider `CCOc1ccc(NC(=O)C2CCN(S(=O)(=O)c3ccc4c(c3)N(C(C)=O)CCO4)CC2)cc1`, for which the EC50 is > 35 µM (inactive). As for `COc1ccc(NC(=O)CNC(=O)Cc2cccc3ccccc23)c(OC)c1`, the EC50 is > 35 µM (inactive). With `COc1cccc(NC(=S)N(CCCN2CCOCC2)Cc2cn(C)c3ccccc23)c1` the figure was > 35 µM (inactive); with `CN1CCC2(CC1)N=C(c1ccc(F)cc1)C(=S)N2C(=O)c1ccc(C(C)(C)C)cc1`, > 35 µM (inactive); with `Cc1cc(SCC(=O)N/N=C/c2ccc(O)cc2O)c(C)cc1Br`, 32.3 µM. As to `CCCCNC(=S)Nc1ccc2cn[nH]c2c1`, the EC50 is > 35 µM (inactive).

Consider `COC(=O)C1=C(C)N(C)C(=O)NC1c1cc(Cl)c(O)c(OC)c1` (stereo not given), for which the EC50 is > 35 µM (inactive).

On to `Cn1nc(C(F)(F)F)cc1C(=O)NC1CCCCCC1`, for which the EC50 was > 35 µM (inactive).

For the compound `CCN(CC)CCOc1ccc2c(c1)C(=NO)c1cc(OCCN(CC)CC)ccc1-2`, the EC50 is > 35 µM (inactive). As for `COc1ccc(C(=O)N2CCCCCC2)cc1S(=O)(=O)N1CCOCC1`, the EC50 is > 35 µM (inactive). As to `Cc1ccc(-c2csc3nc(SCC(=O)N(C)C)n(Cc4ccccc4)c(=O)c23)cc1`, the EC50 was 5.26 µM. Consider `CCOC(=O)C1(C)NC(c2ccc(OC)cc2OC)C2C(=O)N(CC)C(=O)C21` (stereo not given), for which the EC50 is > 35 µM (inactive).

On to `Cc1ccc(Oc2ncc(CN3CC(C)OC(C)C3)s2)cc1` (stereo not given), for which the EC50 is > 35 µM (inactive). With `CCOc1ccccc1NC(=O)CSc1ncnc2c1oc1ccccc12`, the EC50 is > 35 µM (inactive). With `c1ccc(CSc2nnc(-c3ccco3)o2)cc1` the figure was > 35 µM (inactive); with `Cc1ccc(-n2nc3c(=O)n(CC(=O)NCc4ccccc4)nc(C)c3c2C)cc1`, > 35 µM (inactive); with `CC(OC(=O)c1ncc(Cl)c(Cl)c1Cl)C(=O)NC1(C#N)CCCCC1` (stereo not given), 17.4 µM. In the case of `O=C(Cn1nc(-c2ccccc2Cl)ccc1=O)Nc1ccccc1-c1ccccc1`, the EC50 is > 35 µM (inactive). Regarding `Cc1cc(SCC(=O)N/N=C/c2ccccc2C(=O)O)c(C)cc1Br`, the EC50 is > 35 µM (inactive). For the compound `Cc1ccc(NC(=O)N2CCC(NC(=O)c3cccc(C)c3)CC2)cc1`, the EC50 was > 35 µM (inactive). With `CCOC(=O)CN(C(=O)COc1nc(C)cc(C)c1C#N)c1cccc(Cl)c1` the figure was > 35 µM (inactive); with `CCC(C)c1ccc2oc(-c3ccc(NC(=O)Cn4cnc5c(=O)n(C)c(=O)n(C)c54)cc3)nc2c1` (stereo not given), 6.07 µM; with `CCN(CC)CCCNC(=O)C1c2ccccc2C(=O)N(C)C1c1ccc(OC)cc1` (stereo not given), > 35 µM (inactive). Turning to `Cc1nc(C)c(C(=O)N/N=C/c2cc(Br)ccc2O)s1`, the EC50 is 7.18 µM. Turning to `CCOC(=O)CN1C(=N)N(c2nc(NC(C)C)nc(NC(C)C)n2)CC1=O`, the EC50 is > 35 µM (inactive). Turning to `CCOc1nc(Nc2ccc(OC)cc2)nc(OCC)n1`, the EC50 was > 35 µM (inactive). On to `CCCCC(=O)NC(c1ccccc1Cl)c1ccc2cccnc2c1O` (stereo not given), for which the EC50 was 3.16 µM. With `CCCC(=O)NC(c1ccc(Cl)cc1)c1ccc2cccnc2c1O` (stereo not given) the figure was 2.22 µM; with `O=C(CSc1ccc(-c2ccccn2)nn1)Nc1nccs1`, 10.6 µM; with `C/C(=N\O)C(=O)Nc1ccccc1`, > 35 µM (inactive). For the compound `COc1cccc(OCc2cc(C(=O)N3CCN(c4ccccc4OC)CC3)no2)c1`, the EC50 was > 35 µM (inactive). On to `CCC(=O)NC(=S)Nc1ccc(NC(=O)c2cccc([N+](=O)[O-])c2C)cc1`, for which the EC50 was > 35 µM (inactive).
